The values that follow come from ChEMBL document CHEMBL1667825, “Synthesis of cross-reactive carbohydrate determinants fragments as tools for in vitro allergy diagnosis” (Bioorg Med Chem, 2011).

Activity calls are given as the source filed them. The rule behind the calls is not given here.

For assay [1], the species on record is Homo sapiens. Kind of assay: Binding affinity to human anti-bromelain immunoglobulin E in multiple pollen sensitised patient serum using after 30 mins by ELISA. In general terms: ELISA stands for enzyme-linked immunosorbent assay.
The species entered for assay [2] is Oryctolagus cuniculus. The experiment in a line: Binding affinity to rabbit anti-HRP immunoglobulin G antibody at 5 ug/ml using p-nitrophenyl-phosphate substrate after 15 mins by ELISA.
For assay [3], the species on record is Oryctolagus cuniculus. Kind of assay: Binding affinity to rabbit anti-bee venom immunoglobulin G antibody at 5 ug/ml using p-nitrophenyl-phosphate substrate after 15 mins by ELISA.

For `CC(=O)N[C@H]1[C@H](O[C@H]2[C@H](O[C@@H]3O[C@@H](C)[C@@H](O)[C@@H](O)[C@@H]3O)[C@@H](NC(C)=O)[C@H](OCCCCCC(=O)NCCCCCCNC(=O)CCCC[C@H]3[C@H]4NC(=O)N[C@H]4CS3(=O)=O)O[C@@H]2CO[C@H]2O[C@H](C)[C@H](O)[C@H](O)[C@H]2O)O[C@H](CO)[C@@H](O)[C@@H]1O`, the outcome in assay [1] and in assay [2] was Active. The outcome in assay [3] was inactive.

Take `O=C(CCCCCO[C@@H]1O[C@H](CO[C@H]2O[C@H](CO)[C@@H](O)[C@H](O)[C@@H]2O)[C@@H](O)[C@H](O[C@@H]2O[C@@H](CO)[C@H](O)[C@@H](O)[C@H]2O)[C@@H]1O[C@@H]1OC[C@@H](O)[C@H](O)[C@H]1O)NCCCCCCNC(=O)CCCC[C@@H]1SC[C@@H]2NC(=O)N[C@@H]21`: the result in assay [1] and in assay [2] was Active.

As for `O=C(CCCCCO[C@@H]1O[C@H](CO[C@H]2O[C@H](CO)[C@@H](O)[C@H](O)[C@@H]2O)[C@@H](O)[C@H](O)[C@@H]1O[C@@H]1OC[C@@H](O)[C@H](O)[C@H]1O)NCCCCCCNC(=O)CCCC[C@@H]1SC[C@@H]2NC(=O)N[C@@H]21`, in assay [2], the result was Active.

For the molecule `CC(=O)N[C@H]1[C@H](O[C@H]2[C@H](O[C@@H]3O[C@@H](C)[C@@H](O)[C@@H](O)[C@@H]3O)[C@@H](NC(C)=O)[C@H](OCCCCCC(=O)NCCCCCCNC(=O)CCCC[C@H]3[C@H]4NC(=O)N[C@H]4CS3(=O)=O)O[C@@H]2CO)O[C@H](CO)[C@@H](O)[C@@H]1O`, the result in assay [1] and in assay [2] was Active.
